Assay results taken from article PMC6928678, “Simplified Head-to-Tail Cyclic Polypeptides as Biomaterial-Associated Antimicrobials with Endotoxin Neutralizing and Anti-Inflammatory Capabilities” (International Journal of Molecular Sciences, 2019).
≈ marks a conversion by molar mass, not a printed value. Where a SMILES comes first, the peptide text is derived from it. [ ]: non-standard residue; d: D form. Orn = NCCC[C@H](N)C(=O)O

What was measured:
[1] = tested on: all the 9 bacteria tested; test: Geometric mean of MICs, all 9 bacteria; type: cell-based; details: for GM MIC (range of Gram-negative and Gram-positive geometric means): Table 2; for tGM, geometric mean of the MICs against all the 9 bacteria: all 9 bacteria tested
Protocol: (§1) Briefly, the bacteria were incubated overnight at 37 °C with constant shaking at 220 rpm, then were transferred to new MH broth (MHB) medium until they reached the logarithmic phase of growth. The bacteria were then diluted to 10^5 (CFU)/mL in MHB. The peptides were dissolved and diluted in 0.01% acetic acid and 0.2% bovine serum albumin (BSA) at various concentrations (0.5–128 μM) in each well of sterile 96-well plates and incubated for 20 h at 37 °C. […] The test was repeated three times.

[2] = tested on: human red blood cells (hRBCs); test: Hemolysis assay; type: cell-based; details: red cells of human, 1 h
Protocol: Figure 2 (A) Hemolytic activity of the engineered peptides against human red blood cells (hRBCs). The hRBCs were incubated with equal amounts of the respective peptides dissolved in PBS for 1 h at 37 °C. (B) Cytotoxicity of the engineered peptides against RAW264.7. […] Data shown are three independent experiments.
The hemolytic activity of the peptides is determined by measuring the amount of hemoglobin released during the lysis of human erythrocytes at different concentrations of AMPs. Briefly, fresh, healthy human red blood cells (hRBCs) were collected and then washed three times with phosphate-buffered saline (PBS) buffer (pH 7.2) and centrifuged at 1000× g for 5 min. Each 50 µL sample of hRBCs was incubated with 50 µL of the respective peptide dissolved in PBS in a well of a 96-well plate for 1 h at 37 °C. After incubation, the samples were centrifuged at 1000× g for 5 min and the supernatants (50 μL) were transferred to a new 96-well microplate. The release of hemoglobin was measured by monitoring the OD at 570 nm (Tecan, Salzburg, Austria). Negative (hRBCs without AMP treatment) and positive (hRBCs treated with 0.1% TritonX-100) controls were used. The concentration of peptide that caused 5% hemolysis was considered the minimal hemolysis concentration (MHC). The test was repeated three times. The percent hemolysis was calculated using the following formula:(2) Percent hemolysis=A−A0/At−A0× 100% A0 and At represent 0% and 100% hemolysis as measured in 10 mM PBS and 0.2% Triton X-100, respectively.

RAW264.7 cells = test: MTT cytotoxicity assay; type: cell-based, mouse; details: 0.5–128 μM, 24 h
Protocol: Figure 2 (A) Hemolytic activity of the engineered peptides against human red blood cells (hRBCs). The hRBCs were incubated with equal amounts of the respective peptides dissolved in PBS for 1 h at 37 °C. (B) Cytotoxicity of the engineered peptides against RAW264.7. The cells were incubated with various concentrations (0.5–128 μM) of peptides for 24 h, and the cell viability was determined by the MTT assay. Data shown are three independent experiments.
The MTT (3-[4, 5 dimethylthiozol-2-yl]-2,5-diphenyltetrazolium bromide) assay was conducted according to a previously reported MTT colorimetric method, and is used as a cell proliferation and cell viability assay. Mouse macrophage RAW264.7 cell lines stored in liquid nitrogen were recovered and cultured in a fully humidified atmosphere with 95% air and 5% CO2 at 37 °C. The cells were then diluted, added to 96-well plates at a final concentration of 2 × 10^5 cells/well, and cultured in RPMI 1640 medium at 37 °C overnight. The next day, peptides were added to the cell cultures at final concentrations of 0.5–128 μM, and untreated cell cultures serving as controls were cultured for 20–24 h in the same conditions. […] 150 μL of DMSO was added to dissolve the formazan crystals, and the OD was measured using a microplate reader (Tecan GENios F129004, Salzburg, Austria) at 570 nm. […]

[3] = tested on: gram-negative strains tested; test: Geometric mean of MICs, gram-negative strains; type: cell-based; details: 5 gram-negative strains; >128 apparently counted as 256; read-out: nGM (–), geometric mean of the MICs against gram-negative strains
Protocol: as §1

[4] = tested on: oxazolone-induced ear edema; test: Oxazolone-induced skin inflammation (allergic dermatitis model); details: for ear thickness and ear punch weight: mice, topical 0.5%, 1% or 2% w/v on right ear, 24 h after treatment
Protocol: ICR mice (male, 4–6 weeks old, and 18–22 g) were obtained from the Experimental Animal Center of Harbin Medical University.
4-Ethoxymethylene-2-phenyl-2-oxazolin-5-one (oxazolone, OXA) was used to induce ear edema in mice [66]. […] The fur was clipped from each animal’s abdomen the day before the experiment was conducted. On the day of the experiment (day 0), 50 ul 3% oxazolone induction solution (prepared in a 5:1 (v/v) mixture of acetone: corn oil carrier) was applied to all mice as a single topical application to the shaved abdomen. After 5 days, 50 µL of 1% oxazolone challenge solution (prepared in acetone) was applied as a single topical application to the dorsal area of the right ear for 1 h. Of the peptide solution, vehicle control or positive control (dexamethasone) solution 20 µL was applied topically to the dorsal area of the right ear. The left ear was used as a control. 24 h later, the mice were euthanized by cervical dislocation under ether anesthesia, and two ear punches (6 mm, i.d.) were collected and weighed. The degree of edema and the increase in ear thickness were determined by the increase in the weight and thickness of the right ear punch when compared with that of the left ear.
(4) Ear weight increase %=[Right ear weight (mg)− Left ear weight (mg)]/Left ear weight (mg)× 100%
(5) Increase of the ear thickness% =Right ear thickness (mm)−Left ear thinkcess (mm)/Left ear thickness×100%
Mouse ear tissues were ground in liquid nitrogen and 1 mL of Trizol was added. The total RNA content in each group of ears was extracted using the conventional Trizol method. qRT-PCR was used to measure the mRNA level of inflammatory cytokines TNF-α, IL-6 and IL-1β in mouse ear tissues. One microgram total of RNA was reverse transcribed using M-MLV reverse transcriptase (Takara, Japan). qRT-PCR was performed using a SYBR Green Mix kit (Takara, Japan) with a 7500 Real-Time PCR system according to the manufacturer’s instructions. The mRNA expression levels were normalized to β-actin using the (2^−∆∆Ct) method. The gene expression was normalized to the corresponding mGAPDH level. […]

E. coli UB1005 = test: Outer membrane permeability assay (NPN uptake); type: cell-based; details: E. coli UB1005, concentrations greater than 4 μM; relative to 10 μg/mL polymyxin B
Protocol: Figure 4 Outer membrane permeabilization assays of the engineered peptides. A 2 mL volume of E. coli UB1005 cells, diluted to 10^5 CFU/mL in 5 mM sodium HEPES buffer, was added to a quartz cuvette containing NPN to give a final concentration of 10 μM. Aliquots of peptides were added to the cuvette, and the fluorescence was recorded until there was no further increase in fluorescence. Data shown are three independent experiments.
The effect of antimicrobial peptides on the outer leaflet of the cell membrane was examined using the extracellular membrane-sensitive fluorescent dye NPN and the antibiotic-sensitive mutant E. coli UB 1005. […] The background fluorescence was measured (excitation λ = 350 nm, emission λ = 420 nm) with an F-4500 fluorescence spectrophotometer (Hitachi, Tokyo, Japan). […] The fluorescence was recorded in terms of the time needed until there was no further increase in fluorescence after mixing several concentrations (0.5–64 μM) of peptides. […] Values were converted to percent NPN uptake using the following equation:(3) %NPN uptake=Fobs−F0/F100−F0× 100% where Fobs is the observed fluorescence at a given peptide concentration, F0 is the initial fluorescence of NPN in E. coli UB1005 cells and F100 is the fluorescence of NPN in UB1005 cells upon the addition of 10 μg/mL polymyxin B, which had strong outer membrane permeability.

[5] = RP-HPLC used as measure of hydrophobicity; 4.6 mm × 250 mm Venusil MP C18-5 column, 220 nm, linear acetonitrile gradient 15% to 45% in 30 min, 0.1% trifluoroacetic acid, 1 mL/min
Description: In this experiment, cyclic, linear and D-proline antimicrobial peptides were designed based on the IR-rich template sequence (IR)nP(IR)nP (n = 1, 2 and 3). […] The […] molecular weights of the peptides were identified using mass spectrometry. […] The hydrophobicity of the peptides in solution is dependably mirrored by the HPLC retention times.

Structure (SMILES): CC(C)C[C@@H]1NC(=O)[C@H](CCCN)NC(=O)[C@H](C(C)C)NC(=O)[C@@H]2CCCN2C(=O)[C@@H](Cc2ccccc2)NC(=O)[C@H](CC(C)C)NC(=O)[C@H](CCCN)NC(=O)[C@H](C(C)C)NC(=O)[C@@H]2CCCN2C(=O)[C@@H](Cc2ccccc2)NC1=O [GS, gramicidin S, reference compound] (cyclo(V[Orn]L[dF]PV[Orn]L[dF]P))
- GM MIC (range of Gram-negative and Gram-positive geometric means) [1]: 2 to 6.1 µM
- tGM, geometric mean of the MICs against all the 9 bacteria [1]: 3.7 µM
- MHC5, minimum hemolytic concentration that induced ≥5% hemolysis [2]: 8 µM
- toxicity towards mammalian cells (RAW264.7) (RAW264.7 cells): highly toxic
- MIC [3]: 6.1 µM (≈ 6.96 µg/mL)
- ear thickness and ear punch weight [4]: increased

Structure (SMILES): CC[C@H](C)[C@@H]1NC(=O)[C@H](CCCNC(=N)N)NC(=O)[C@H]([C@@H](C)CC)NC(=O)[C@@H]2CCCN2C(=O)[C@H](CCCNC(=N)N)NC(=O)[C@H]([C@@H](C)CC)NC(=O)[C@H](CCCNC(=N)N)NC(=O)[C@H]([C@@H](C)CC)NC(=O)[C@H](CCCNC(=N)N)NC(=O)[C@H]([C@@H](C)CC)NC(=O)[C@@H]2CCCN2C(=O)[C@H](CCCNC(=N)N)NC(=O)[C@H]([C@@H](C)CC)NC(=O)[C@H](CCCNC(=N)N)NC1=O [OIR3] (cyclo(IRIRIRPIRIRIRP))
- GM MIC (range of Gram-negative and Gram-positive geometric means) [1]: 3.5 to 4.0 µM
- tGM, geometric mean of the MICs against all the 9 bacteria [1]: 3.7 µM
- MHC5, minimum hemolytic concentration that induced ≥5% hemolysis [2]: >128 µM
- MIC [3]: 3.5 µM (≈ 6.34 µg/mL)
- outer membrane permeability (% NPN uptake) (E. coli UB1005): more than 70%
- ear thickness and ear punch weight [4]: significantly reduced
- expression of mRNA of TNF-α, IL-1β and IL-6 in mouse ear tissue ([4]; qRT-PCR, oxazolone-induced skin inflammation): significantly down-regulated
- RT (retention time) [5]: 12.64 min
